Here are results for two molecules from article PMC6017733, “Identification of Bichalcones as Sirtuin Inhibitors by Virtual Screening and In Vitro Testing” (Molecules : A Journal of Synthetic Chemistry and Natural …, 2018).

The structures appear in SMILES notation.

Common to all, as to format: biochemical
One assay concerns the target T1, sirt1 (Homo sapiens, UniProt Q96EB6).
T1 construct: sirt1_133–747 (GST-tagged)
T1 sequence (Q96EB6 133-747): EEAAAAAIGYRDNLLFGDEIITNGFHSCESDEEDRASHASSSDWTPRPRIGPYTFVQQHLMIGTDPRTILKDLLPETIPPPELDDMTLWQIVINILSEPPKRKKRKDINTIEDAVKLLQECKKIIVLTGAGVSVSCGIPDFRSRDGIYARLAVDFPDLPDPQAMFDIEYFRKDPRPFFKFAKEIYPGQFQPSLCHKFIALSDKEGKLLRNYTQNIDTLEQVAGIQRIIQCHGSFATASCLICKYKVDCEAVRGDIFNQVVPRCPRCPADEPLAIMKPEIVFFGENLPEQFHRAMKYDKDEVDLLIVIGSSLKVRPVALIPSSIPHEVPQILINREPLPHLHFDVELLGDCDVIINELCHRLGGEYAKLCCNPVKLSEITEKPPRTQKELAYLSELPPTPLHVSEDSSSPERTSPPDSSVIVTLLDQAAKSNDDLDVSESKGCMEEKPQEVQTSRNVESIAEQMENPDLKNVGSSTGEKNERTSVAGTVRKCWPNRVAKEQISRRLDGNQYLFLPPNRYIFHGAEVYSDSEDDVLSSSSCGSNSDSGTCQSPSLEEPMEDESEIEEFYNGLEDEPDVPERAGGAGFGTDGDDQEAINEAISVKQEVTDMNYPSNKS
The assay is described as follows: fluorescent deacetylase assay (ZMAL substrate, trypsin-coupled).

The target in a further assay is T2, sirt2 (Homo sapiens, UniProt Q8IXJ6).
T2 sequence (Q8IXJ6 56-356): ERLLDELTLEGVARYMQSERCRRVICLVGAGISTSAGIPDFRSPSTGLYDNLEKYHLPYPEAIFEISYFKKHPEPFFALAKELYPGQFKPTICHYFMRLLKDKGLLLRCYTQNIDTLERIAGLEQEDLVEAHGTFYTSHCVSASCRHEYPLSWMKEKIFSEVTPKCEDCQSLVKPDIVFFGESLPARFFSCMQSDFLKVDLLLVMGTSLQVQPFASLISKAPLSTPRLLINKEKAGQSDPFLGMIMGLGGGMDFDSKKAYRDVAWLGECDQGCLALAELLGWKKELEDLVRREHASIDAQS
Described as above.

In a further assay the target is T3, sirt3 (Homo sapiens, UniProt Q9NTG7).
T3 construct: sirt3_118–395 (His6-tagged)
T3 sequence (Q9NTG7 118-395): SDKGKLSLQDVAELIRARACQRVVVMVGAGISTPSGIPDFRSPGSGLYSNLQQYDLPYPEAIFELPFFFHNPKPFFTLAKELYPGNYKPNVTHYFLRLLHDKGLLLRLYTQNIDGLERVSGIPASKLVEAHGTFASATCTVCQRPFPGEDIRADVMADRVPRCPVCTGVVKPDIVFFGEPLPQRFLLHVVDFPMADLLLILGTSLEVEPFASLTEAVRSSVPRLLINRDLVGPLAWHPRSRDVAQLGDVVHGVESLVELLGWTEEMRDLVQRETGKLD
As to the kind of experiment: fluorescent deacetylase assay, % inhibition at […]. Conditions: read-out: Sirt 3 (μM or % Inhibition).

As to `COc1cc(O)c(C(=O)/C=C/c2ccc(O)cc2)cc1Oc1ccc(C(=O)/C=C/c2ccc(O)cc2O)c(O)c1` [compound 9, rhuschalcone I analogue], the IC50 on sirt1 was determined as 40.8 ± 8.5 µM; against sirt2, 44.8 ± 5.1 µM.
For `COc1cc(O)c(C(=O)/C=C/c2ccc(O)cc2)cc1Oc1ccc(C(=O)/C=C/c2ccc(O)cc2)c(O)c1` [compound 8, rhuschalcone IV], on sirt3, the inhibition at 50 µM amounted to 38%. The IC50 at sirt1 is 46.7 ± 6 µM; on sirt2 it was 48.5 ± 39.5 µM.

As usually defined, the IC50 is the concentration that gives 50% inhibition. Usually inhibition stands for the relative decrease from the control value, in per cent.
